Test results reported in ChEMBL document CHEMBL5375973, “Design and Synthesis of Novel Near-Infrared Fluorescence Probes Based on an Open Conformation of a Cytochrome P450 1B1 Complex for Molecular Imaging of Colorectal Tumors” (J Med Chem, 2023).

How the values were obtained:
HFF-1 = experiment: Cytotoxicity against human HFF-1 cells at 1 to 10 uM incubated for 24 hrs by MTT assay; assay type: toxicity, cell-based; details: hff-1, 24 h, dose 1-10 µM
HCT-15 = experiment: Cytotoxicity against human HCT-15 cells assessed as cell viability at 10 uM incubated for 24 hrs by MTT assay; assay type: functional; details: read-out: Activity
Cytochrome P450 1B1 [1] = molecular target: T1, Cytochrome P450 1B1 (Homo sapiens, UniProt Q16678); experiment: Binding affinity to CYP1B1 in human HCT-15 cells assessed as apparent dissociation constant incubated for 1 hr by flow cytometry analysis; assay type: ADME, cell-based; details: read-out: Kd(app)
T1 sequence (Q16678 whole entry): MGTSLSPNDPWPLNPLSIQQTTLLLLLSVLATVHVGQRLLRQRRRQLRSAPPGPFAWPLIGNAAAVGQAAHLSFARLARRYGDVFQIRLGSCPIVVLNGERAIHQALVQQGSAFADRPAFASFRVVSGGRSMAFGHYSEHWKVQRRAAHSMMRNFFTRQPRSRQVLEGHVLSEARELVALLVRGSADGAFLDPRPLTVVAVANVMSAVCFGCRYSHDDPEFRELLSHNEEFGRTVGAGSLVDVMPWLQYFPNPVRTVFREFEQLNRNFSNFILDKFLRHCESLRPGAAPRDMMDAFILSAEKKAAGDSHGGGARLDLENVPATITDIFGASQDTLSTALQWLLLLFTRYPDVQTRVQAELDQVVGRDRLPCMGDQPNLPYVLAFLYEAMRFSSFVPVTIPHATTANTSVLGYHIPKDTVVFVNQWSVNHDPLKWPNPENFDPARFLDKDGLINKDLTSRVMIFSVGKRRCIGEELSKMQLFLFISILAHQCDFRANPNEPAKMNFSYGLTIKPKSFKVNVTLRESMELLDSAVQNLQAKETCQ

Cytochrome P450 1B1 [2] = molecular target: T1, Cytochrome P450 1B1; experiment: Binding affinity to CYP1B1 in human HFF-1 cells assessed as increase in fluorescence signal at 0.5 to 1 uM incubated for 1 hr by DAPI staining based confocal laser scanning microscopic analysis; assay type: ADME, cell-based; details: hff-1, 1 h, dose 0.5-1 µM
Cytochrome P450 1B1 [3] = molecular target: T1, Cytochrome P450 1B1; experiment: Binding affinity to CYP1B1 in human HCT-15 cells assessed as increase in fluorescence signal at 0.5 to 1 uM incubated for 1 hr by DAPI staining based confocal laser scanning microscopic analysis; assay type: ADME, cell-based; details: hct-15, 1 h, dose 0.5-1 µM
Cytochrome P450 1B1 [4] = molecular target: T1, Cytochrome P450 1B1; experiment: Binding affinity to CYP1B1 in human HCT-15 cells assessed as increase in fluorescence signal at cytoplasm at 0.5 to 1 uM incubated for 1 hr by DAPI staining based confocal laser scanning microscopic analysis; assay type: ADME, cell-based; details: hct-15, 1 h, dose 0.5-1 µM
Cytochrome P450 1B1 [5] = molecular target: T1, Cytochrome P450 1B1; experiment: Binding affinity to CYP1B1 in human HCT-15 cells assessed as increase in fluorescence signal at nucleus at 0.5 to 1 uM incubated for 1 hr by DAPI staining based confocal laser scanning microscopic analysis; assay type: ADME, cell-based; details: hct-15, 1 h, dose 0.5-1 µM
Cytochrome P450 1B1 [6] = molecular target: T1, Cytochrome P450 1B1; experiment: Binding affinity to CYP1B1 in human HCT-15 cells assessed as increase in fluorescence signal at 0.5 to 1 uM incubated for 1 hr in presence of compound 14c by DAPI staining based confocal laser scanning microscopic analysis; assay type: ADME, cell-based; details: hct-15, 1 h, dose 0.5-1 µM
[7] = Drug distribution in BALB/C mouse xenografted with human HCT-15 cells assessed as increase in fluorescence intensity in tumor at 12 nmol at iv administration observed after 2 hr by IVIS imaging analysis; assay type: ADME, organism-based, Neoplasm; details: in vivo
[8] = Drug distribution in BALB/C mouse xenografted with human HCT-15 cells assessed as increase in fluorescence intensity in tumor at 12 nmol at iv administration observed after 6 hr by IVIS imaging analysis; assay type: ADME, organism-based, Neoplasm; details: in vivo
[9] = Drug distribution in BALB/C mouse xenografted with human HCT-15 cells assessed as increase in fluorescence intensity in tumor at 12 nmol at iv administration in presence of CYP1B1 inhibitor, ANF observed after 2 to 6 hrs by IVIS imaging analysis; assay type: ADME, organism-based, Neoplasm; details: in vivo, time 2-6 hrs
[10] = Drug distribution in BALB/C mouse xenografted with human HCT-15 cells by measuring fluorescence intensity ratio in tumor at 12 nmol at iv administration observed after 2 hrs by IVIS imaging analysis; assay type: ADME, organism-based, Neoplasm; details: in vivo
[11] = Drug distribution in BALB/C mouse xenografted with human HCT-15 cells by measuring fluorescence intensity ratio in tumor at 12 nmol at iv administration observed after 4 hrs by IVIS imaging analysis; assay type: ADME, organism-based, Neoplasm; details: in vivo
[12] = Drug distribution in BALB/C mouse xenografted with human HCT-15 cells by measuring fluorescence intensity ratio in tumor at 12 nmol at iv administration observed after 6 hrs by IVIS imaging analysis; assay type: ADME, organism-based, Neoplasm; details: in vivo
[13] = Drug distribution in BALB/C mouse xenografted with human HCT-15 cells by measuring fluorescence intensity ratio in tumor at 12 nmol at iv administration observed after 24 hrs by IVIS imaging analysis; assay type: ADME, organism-based, Neoplasm; details: in vivo
[14] = Drug distribution in BALB/C mouse xenografted with human HCT-15 cells by measuring fluorescence intensity ratio in muscle tissue at 12 nmol at iv administration observed after 24 hrs by IVIS imaging analysis; assay type: ADME, organism-based; details: in vivo
[15] = Drug distribution in BALB/C mouse xenografted with human HCT-15 cells by measuring fluorescence intensity ratio in tumor at 12 nmol at iv administration in presence of CYP1B1 inhibitor, ANF observed after 2 hrs by IVIS imaging analysis; assay type: ADME, organism-based, Neoplasm; details: in vivo
[16] = Drug distribution in BALB/C mouse xenografted with human HCT-15 cells by measuring fluorescence intensity ratio in tumor at 12 nmol at iv administration in presence of CYP1B1 inhibitor, ANF observed after 4 hrs by IVIS imaging analysis; assay type: ADME, organism-based, Neoplasm; details: in vivo
[17] = Drug distribution in BALB/C mouse xenografted with human HCT-15 cells by measuring fluorescence intensity ratio in tumor at 12 nmol at iv administration in presence of CYP1B1 inhibitor, ANF observed after 6 hrs by IVIS imaging analysis; assay type: ADME, organism-based, Neoplasm; details: in vivo
[18] = Drug distribution in BALB/C mouse xenografted with human HCT-15 cells by measuring fluorescence intensity ratio in tumor at 12 nmol at iv administration in presence of CYP1B1 inhibitor, ANF observed after 24 hrs by IVIS imaging analysis; assay type: ADME, organism-based, Neoplasm; details: in vivo
[19] = Drug distribution in BALB/C mouse xenografted with human HCT-15 cells by measuring fluorescence intensity ratio in muscle tissue at 12 nmol at iv administration in presence of CYP1B1 inhibitor, ANF observed after 24 hrs by IVIS imaging analysis; assay type: ADME, organism-based; details: in vivo
[20] = Drug distribution in BALB/C mouse xenografted with human HCT-15 cells assessed as increase in fluorescence intensity in liver at 12 nmol at iv administration observed after 24 hrs by IVIS imaging analysis; assay type: ADME, organism-based; details: in vivo
[21] = Drug distribution in BALB/C mouse xenografted with human HCT-15 cells assessed as increase in photoacoustic signal in tumor at 12 nmol at iv administration observed after 2 hrs by photoacoustic imaging analysis; assay type: ADME, organism-based, Neoplasm; details: in vivo
[22] = Drug distribution in BALB/C mouse xenografted with human HCT-15 cells assessed as increase in photoacoustic signal in tumor at 12 nmol at iv administration observed after 6 hrs by photoacoustic imaging analysis; assay type: ADME, organism-based, Neoplasm; details: in vivo
[23] = Drug distribution in BALB/C mouse xenografted with human HCT-15 cells assessed as increase in photoacoustic signal in tumor at 12 nmol at iv administration observed after 24 hrs by photoacoustic imaging analysis; assay type: ADME, organism-based, Neoplasm; details: in vivo
[24] = Stability of the compound assessed as drug degradation observed after 24 hrs by HPLC analysis; assay type: physicochemical
Cytochrome P450 1A2 = molecular target: T2, Cytochrome P450 1A2 (Homo sapiens, UniProt P05177); experiment: Inhibition of recombinant CYP1A2 (unknown origin) using 7-ethoxyresorufin as substrate preincubated for 5 mins followed by NADPH addition incubated for 50 mins by EROD assay; assay type: ADME
T2 sequence (P05177 whole entry): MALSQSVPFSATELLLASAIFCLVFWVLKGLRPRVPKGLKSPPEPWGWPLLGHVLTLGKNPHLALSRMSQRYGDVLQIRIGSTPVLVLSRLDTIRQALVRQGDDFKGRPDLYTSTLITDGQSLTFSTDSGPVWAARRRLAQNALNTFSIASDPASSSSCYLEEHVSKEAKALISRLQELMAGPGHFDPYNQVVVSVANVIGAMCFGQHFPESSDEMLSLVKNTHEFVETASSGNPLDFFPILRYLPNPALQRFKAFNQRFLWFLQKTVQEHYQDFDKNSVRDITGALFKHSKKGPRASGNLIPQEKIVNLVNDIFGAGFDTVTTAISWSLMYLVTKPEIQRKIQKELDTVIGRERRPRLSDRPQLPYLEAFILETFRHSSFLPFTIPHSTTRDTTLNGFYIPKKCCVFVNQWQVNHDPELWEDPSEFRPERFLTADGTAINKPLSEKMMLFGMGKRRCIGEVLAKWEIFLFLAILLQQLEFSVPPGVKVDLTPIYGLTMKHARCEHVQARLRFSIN

With CCN1/C(=C/C=C/C=C/C2=[N+](CCCCCC(=O)NCCOCCOCCOCCOc3cc(F)cc(-c4cc(=O)c5cc(OC)c6c(OC)ccc(OC)c6c5o4)c3)c3ccc4c(S(=O)(=O)[O-])cc(S(=O)(=O)O)cc4c3C2(C)C)C(C)(C)c2c1ccc1c(S(=O)(=O)O)cc(S(=O)(=O)O)cc21 the Activity (HFF-1) was “Non-Toxic”, the viability at 10 µM (HCT-15) was over 80% and the Kd (Cytochrome P450 1B1 [1]) was 93.7 nM. For the same molecule, the Activity (Cytochrome P450 1B1 [2]) was “Not Active”, the Activity (Cytochrome P450 1B1 [3]) was “Active” and the Activity (Cytochrome P450 1B1 [4]) was “Active”. For the same molecule, the Activity (Cytochrome P450 1B1 [5]) was “Active”, the Activity (Cytochrome P450 1B1 [6]) was “Not Active” and the Drug uptake [7] was “Active”. For the same molecule, the Drug uptake [8] was “Active”, the Drug uptake [9] was “Not Active” and the Ratio [10] was 1.92. For the same molecule, the Ratio [11] was 1.95, the Ratio [12] was 2.15 and the Ratio [13] was 1.69. For the same molecule, the Ratio [14] was 26.51, the Ratio [15] was 1.06 and the Ratio [16] was 1.19. It also gave a Ratio [17] of 1.32, a Ratio [18] of 1.34 and a Ratio [19] of 12.1. The Drug uptake [20] was “Active”, the Drug uptake [21] was “Active” and the Drug uptake [22] was “Active”. The Drug uptake [23] was “Not Active” and the Stability [24] was “Stable”.
In the case of COc1ccc(OC)c2c1c(OC)cc1c(=O)cc(-c3cc(F)cc(NC(=O)CCCCCCN)c3)oc12, the IC50 (Cytochrome P450 1A2) is reported as 1460 nM.
With COc1ccc(OC)c2c1c(OC)cc1c(=O)cc(-c3cc(F)cc(OCCOCCN)c3)oc12 the IC50 (Cytochrome P450 1A2) was 525 nM.
COc1ccc(OC)c2c1c(OC)cc1c(=O)cc(-c3cc(F)cc(OCCOCCOCCOCCN)c3)oc12 gave an IC50 (Cytochrome P450 1A2) of over 2000 nM.
For COc1ccc(OC)c2c1c(OC)cc1c(=O)cc(-c3cc(F)cc(NC(=O)COCCOCCN)c3)oc12, the IC50 (Cytochrome P450 1A2) was over 2000 nM.
For CCN1/C(=C/C=C/C=C/C2=[N+](CCCCCC(=O)NCCCCCCCCC(=O)Nc3cc(F)cc(-c4cc(=O)c5cc(OC)c6c(OC)ccc(OC)c6c5o4)c3)c3ccc4c(S(=O)(=O)[O-])cc(S(=O)(=O)O)cc4c3C2(C)C)C(C)(C)c2c1ccc1c(S(=O)(=O)O)cc(S(=O)(=O)O)cc21, the Activity (HFF-1) was “Non-Toxic”, the viability at 10 µM (HCT-15) was over 80% and the Kd (Cytochrome P450 1B1 [1]) was 213 nM. The Stability [24] was “Stable”.
In the case of COc1ccc(OC)c2c1c(OC)cc1c(=O)cc(-c3cc(F)cc(NC(=O)COCCOCCOCCN)c3)oc12, the IC50 (Cytochrome P450 1A2) is reported as over 2000 nM.
With CCN1/C(=C/C=C/C=C/C2=[N+](CCCCCC(=O)NCCOCCOCCOCC(=O)Nc3cc(F)cc(-c4cc(=O)c5cc(OC)c6c(OC)ccc(OC)c6c5o4)c3)c3ccc4c(S(=O)(=O)[O-])cc(S(=O)(=O)O)cc4c3C2(C)C)C(C)(C)c2c1ccc1c(S(=O)(=O)O)cc(S(=O)(=O)O)cc21 the Activity (HFF-1) was “Non-Toxic”, the viability at 10 µM (HCT-15) was over 80% and the Kd (Cytochrome P450 1B1 [1]) was 168 nM. For the same molecule, the Stability [24] was “Stable”.
